Test results from patent publication US20160303184A1, “VANCOMYCIN-SUGAR CONJUGATES AND USES THEREOF” (JAWAHARLAL NEHRU CENTRE FOR ADVANCED SCIENTIFIC RESEARCH …, priority 2013, published 2016).
Values after ≈ are worked out from the molar mass of the structure shown. “Also recorded” adds a separate entry of the source. Read-outs that look alike come from different tables or passages of the source.

Key:
[1] = tested on: Methicillin-sensitive S. aureus (MTCC 737); assay: MIC, micro-dilution broth, MSSA; type: cell-based; settings: Staphylococcus aureus, read-out: MIC MSSA
Procedure: (§1) All test compounds were assayed in a micro-dilution broth format. Stock solutions were made by serially diluting the compounds using autoclaved millipore water or broth media. The antibacterial activity of the compounds was determined against methicillin-sensitive S. aureus (MSSA), methicillin-resistant S. aureus (MRSA), vancomycin-intermediate-resistant S. aureus (VISA), vancomycin-sensitive E. faecium (VSE) and vancomycin-resistant E. faecium (VRE). Bacteria, to be tested, were grown for about 10 h in the suitable media, MSSA, MRSA and VISA were grown in yeast-dextrose broth (about 1 g of beef extract, about 2 g of yeast extract, about 5 g of peptone and about 5 g of NaCl in about 1000 mL of sterile distilled water (pH-7)). For solid media, about 5% agar was used along with above mentioned composition. VSE and VRE were cultured in brain heart infusion broth (Himedia). The bacterial samples were freeze dried and stored at −80° C. About 5 μL of these stocks were added to about 3 mL of the nutrient broth and the culture was grown for about 6 h at about 37° C. prior to the experiments. This 6 h grown culture gives about 10^9 cfu/mL and this was determined by spread plating method. The 6 h grown culture was diluted to give effective cell concentration of about 10^5 cfu/mL which was then used for determining MIC. Compounds were serially diluted, in sterile water (2 fold dilution is employed) in a way that the working concentration was about 10 μM for MSSA, MRSA, and VSE while for VRE and VISA it was about 100 μM. About 50 μL of these serial dilutions were added to the wells of 96 well plate followed by the addition of about 150 μL of bacterial solution. The plates were then incubated at about 37° C., 150 rpm in the incubator and O.D at 600 nm was recorded at an interval of about 10 h and 24 h using TECAN (Infinite series, M200 pro) Plate Reader. Each concentration had triplicate values and the whole experiment was done at least twice and the MIC value was determined by taking the average of triplicate. O. D. values for each concentration and plotting it against concentration. The data was then subjected to sigmoidal fitting. From the curve the MIC value was determined, as the point in the curve where the O. D. was similar to that of control having no bacteria.

[2] = tested on: Vancomycin-sensitive E. faecium (ATCC 19634); assay: MIC, micro-dilution broth, VSE; type: cell-based; settings: Enterococcus faecium, ATCC19634, read-out: MIC VSE
Procedure: as §1

[3] = tested on: Vancomycin-resistant E. faecium (VanA, ATCC 51559); assay: MIC, micro-dilution broth, VRE (VanA); type: cell-based
Procedure: as §1

[4] = tested on: methicillin-resistant S. aureus clinical isolate; assay: MIC, clinical isolate of methicillin-resistant S. aureus; type: cell-based; settings: Staphylococcus aureus, read-out: MIC S. aureus
Procedure: as §1

[5] = tested on: VISA; assay: Ex-vivo whole blood assay; type: cell-based, S. aureus; settings: 3 h incubation in 90% human whole blood
Procedure: Ex-vivo whole blood assay was performed to compare the abilities of these compounds to retain activity in complex media. To 30 μL of VISA in saline (0.9% NaCl; 10^6 CFU/mL) 10 μL of test compounds (vancomycin and compound 7) and 270 μL of fresh human whole blood were added and incubated, at 37° C. for about 3 h. After the incubation period, antibacterial activity was determined by finding the bacterial titer in the infected blood.

[6] = tested on: methicillin-resistant vancomycin-intermediate S. aureus (MR-VISA); assay: Time-kill assay; type: cell-based; settings: 2 μM and 4 μM
Procedure: The bactericidal activity was assessed by the kinetics or the rate at which it affects the killing action of the compound. Briefly methicillin-resistant vancomycin-intermediate S. aureus (MR-VISA) grown in Yeast-Dextrose broth. A starting inoculum of 1.6×10^8 CFU/ml was used as initial bacterial colony count. Vancomycin and compound 7 having final concentrations of 2 μM and 4 μM were inoculated with MR-VISA suspensions having starting inocula of 1.6×10^8 CFU/ml. Bacterial suspension containing specified concentrations of the compound along with negative control (which contains only 0.9% Saline) was incubated at 37° C. with shaking. Aliquots (20 μl) were removed from the cultures at different time intervals and were serially diluted 10-fold in 0.9% saline and plated onto sterile Yeast-Dextrose agar medium. The number of viable cells was determined by plating the 10-fold serial dilution of each sample onto Yeast-dextrose agar medium. Plates were then incubated for 24 h at 37° C., CFU was counted and the total bacterial log 10 CFU/ml was determined.

[7] = Single dose pharmacokinetics; type: in vivo, CD-1 female mice; set-up: clearance: unit not given here; settings: 12 mg/kg single i.v., mice, plasma
Procedure: A single dose pharmacokinetic analysis of compound 7 was performed in CD-1 female mice. Mice were administered a single intravenous dose of 12 mg/kg. Blood samples were collected from mice by retro-orbital aspiration and placed into heparinized tubes at different time intervals after dosing. The plasma was separated by centrifugation, and drug plasma concentrations were measured by microbiologic assay with Bacillus subtilis as the test organism. The lower limit of detection of the assay was 0.6 μg/ml. Pharmacokinetic parameters, including half-life, AUC and Cmax were calculated by using non-compartmental model.

[8] = Acute toxicity (blood biochemistry, liver and kidney histology); type: in vivo, mice; settings: 12 mg/kg i.v.
Procedure: For the evaluation of the acute toxicity, two groups of 10 mice each received intravenous injection of compound 7 at 12 mg/kg in 0.2 ml of sterilized saline. 10 mice were sacrificed at 48 h and the rest mice at 14 days to collect blood samples for analysis of biochemical parameters such as alanine transaminase (ALT), alkaline phosphatase (ALP), urea nitrogen, creatinine, sodium ion, potassium ion and chloride ion levels. Blood samples were analyzed at Gokula Metropolis clinical laboratory, Bengaluru, India. And also to examine the adverse effects of compound 7 in tissue level, we have isolated liver and kidney organs in 10% neutral formalin. Tissues were processed by dehydration in ascending grades of ethyl alcohol, clearing in xylol, embedding in paraffin wax and prepared sections of 5 μm thickness. Then paraffin sections were stained using haematoxylin and eosin, and observed under light microscope for histological changes.

Structure (SMILES): CCCCCCCCCCN[C@]1(C)C[C@H](OC2C(O)[C@@H](O)C(CO)O[C@@H]2Oc2c3cc4cc2Oc2ccc(cc2Cl)[C@@H](O)[C@@H](NC(=O)[C@@H](CC(C)C)NC)C(=O)N[C@@H](CC(N)=O)C(=O)N[C@H]4C(=O)N[C@H]2C(=O)N[C@H](C(=O)N[C@H](C(=O)NCCCNC(=O)[C@H](O)[C@@H](O)[C@H](OC4OC(CO)C(O)C(O)[C@H]4O)[C@H](O)CO)c4cc(O)cc(O)c4-c4cc2ccc4O)[C@H](O)c2ccc(c(Cl)c2)O3)OC(C)[C@@H]1O (stereo partly shown) [Compound 7]
- MIC [1]: 0.2 µM (≈ 0.397 µg/mL)
- MIC [2]: 0.15 µM (≈ 0.298 µg/mL)
- MIC ([3]; Enterococcus faecium, read-out: MIC VRE (VanA)): 1 µM (≈ 1.99 µg/mL)
- fold higher activity than vancomycin ([3]; VRE (VanA phenotype)): > 700 fold
- MIC [4]: 0.3 µM (≈ 0.596 µg/mL)
- bactericidal activity in whole blood [5]: rapid bactericidal activity
- killing kinetics [6]: rapid
- Cmax [7]: 703 µg/mL
- Cmin [7]: 1.7 µg/mL
- half-life ([7]; female, CD-1, mouse, iv): 2.76 h
- AUC(0-t) ([7]; female, CD-1, mouse, iv, read-out: AUC0-24 h): 562 µg·h/mL
- Cmax ([7]; female, CD-1, mouse, iv, 12 mg/kg, read-out: Cmax): 703 µg/mL
- clearance ([7]; female, CD-1, mouse, iv): 4.17
- AUC ([7]; female, CD-1, mouse, iv, 0.083 h to 24 h): 562 µg·h/mL
- acute damage to liver and kidney functions ([8]; 48 h and 14 days): did not cause any significant acute damage; also recorded: no significant acute damage
- Chloride ion ([8]; 48 h post-treatment): 112.9 ± 1.52 mmol/L
- Kidney Creatinine ([8]; 48 h post-treatment): 0.2 ± 0.133 mg/dL
- Liver ALT ([8]; 48 h post-treatment): 55.23 ± 5.24 U L^−1
- Potassium ion ([8]; 48 h post-treatment): 6.86 ± 0.81 mmol/L
- Sodium ion ([8]; 48 h post-treatment): 143.63 ± 1.65 mmol/L
- Urea Nitrogen ([8]; 48 h post-treatment): 19.52 ± 3.25 mg/dL
- Chloride ion ([8]; 14 days post treatment): 110.85 ± 2.16 mmol/L
- Kidney Creatinine ([8]; 14 days post treatment): 0.22 ± 0.1 mg/dL
- Liver ALT ([8]; 14 days post treatment): 53.28 ± 3.78 U L^−1
- Potassium ion ([8]; 14 days post treatment): 6.75 ± 0.833 mmol/L
- Sodium ion ([8]; 14 days post treatment): 143.04 ± 0.71 mmol/L
- Urea Nitrogen ([8]; 14 days post treatment): 24.46 ± 4.93 mg/dL
- gross anatomical and histopathological examination of liver and kidney sections ([8]; compared to control): no significant changes
